The values below come from patent US9018197B2, “Tetradecahydro-1H-cyclopenta[a]phenanthrene compounds, compositions, and related methods of use” (Suzhou Neupharma Co. Ltd., priority 2010, dated 2015).

One assay relates to A549 cells. The experiment in a line: Inhibition of cell growth in tumor cells, MTT assay, A549 cells. The assay is classed as cell-based. The conditions noted are these: Homo sapiens, 72 h compound exposure. As for the experimental part: (§1) Inhibition of cell growth by compounds was measured using MTT assay (Mosmann, T., Journal of Immunological Methods, 1983, 65, 55-63). Tumor cell lines were purchased from ATCC (American Type Culture Collection, Manassas, Va.). All cell lines were maintained in RPMI 1640 (Hyclone) supplemented with 10% fetal bovine serum (FBS, Hyclone), glutamine (2 mM, Hyclone), and antibiotics (penicillin 100 U/mL and streptomycin 50 μg/mL) at 37° C. in a humidified atmosphere of 5% CO2 in air. Taxol (positive control, Sigma) and compounds were dissolved in DMSO (Sigma), and the final concentration of DMSO in the medium was 1%. Tumor cells were plated in 96-well plates at densities from 4000 cells/well of a 96-well plate and allowed to adhere/grow for 24 h. They were then treated with various concentrations of drug for 72 h. 3-(4,5-Dimethylthiazol-2-yl)-2,5-diphenyltetrazolium bromide (MTT, Sigma) was used to determine the number of viable cells at the time of compound addition and the number of cells remaining after 72 h compound exposure. The number of cells remaining after 72 h was compared to the number of viable cells at the time of compound addition by measuring the absorbance at 570 nm, allowing for the calculation of growth inhibition.
(§2) All concentrations of compounds were tested in triplicate and controls were averaged over 4 wells. IC50 was calculated by plotting the concentration of compound vs the percentage of inhibition in treated wells using GraphPad Prism 5.
For orientation: Tetrazolium dyes change colour on reduction, which living cells bring about.

Another assay concerns Bcap-37 cells. The assay is described as follows: Inhibition of cell growth in tumor cells, MTT assay, Bcap-37 cells. The assay is classed as cell-based. The note with it: Homo sapiens, Bcap37, 72 h compound exposure. The procedure: as §1, §2

`C[C@]12CC[C@H](OC(=O)NCCN3CCCC3)C[C@H]1CC[C@H]1C3=CC[C@H](c4ccc(=O)oc4)[C@@]3(C)CC[C@@H]12` [(3S,5R,8R,9S,10S,13R,17S)-10,13-dimethyl-17-(2-oxo-2H-pyran-5-yl)-2,3,4,5,6,7,8,9,10,11,12,13,16,17-tetradecahydro-1H-cyclopenta[a]phenanthren-3-yl 2-(pyrrolidin-1-yl)ethylcarbamate]: the values for the 50% inhibitory concentration (IC50) in the assay with A549 cells and in the assay with Bcap-37 cells were 217 nM and 168 nM, respectively. `C[C@]12CC[C@H](OC(=O)NCCN3CCOCC3)C[C@H]1CC[C@H]1C3=CC[C@H](c4ccc(=O)oc4)[C@@]3(C)CC[C@@H]12` [(3S,5R,8R,9S,10S,13R,17S)-10,13-dimethyl-17-(2-oxo-2H-pyran-5-yl)-2,3,4,5,6,7,8,9,10,11,12,13,16,17-tetradecahydro-1H-cyclopenta[a]phenanthren-3-yl 2-morpholinoethylcarbamate]: the concentration for half-maximal inhibition (IC50) in the assay on A549 cells turned out to be 54.8 nM; with Bcap-37 cells it was 192 nM. As for `C[C@]12CC[C@H](OC(=O)N3CCNCC3)C[C@H]1CC[C@H]1C3=CC[C@H](c4ccc(=O)oc4)[C@@]3(C)CC[C@@H]12` [(3S,5R,8R,9S,10S,13R,17S)-10,13-dimethyl-17-(2-oxo-2H-pyran-5-yl)-2,3,4,5,6,7,8,9,10,11,12,13,16,17-tetradecahydro-1H-cyclopenta[a]phenanthren-3-ylpiperazine-1-carboxylate], the concentration for half-maximal inhibition (IC50) in the assay on A549 cells is 90.2 nM; in the assay with Bcap-37 cells, 137 nM. `CC(C)[C@@H](N)C(=O)O[C@H]1CC[C@@]2(C)[C@H](CC[C@H]3C4=CC[C@H](c5ccc(=O)oc5)[C@@]4(C)CC[C@@H]32)C1` [(R)-((3S,5R,8R,9S,10S,13R,17S)-10,13-dimethyl-17-(2-oxo-2H-pyran-5-yl)-2,3,4,5,6,7,8,9,10,11,12,13,16,17-tetradecahydro-1H-cyclopenta[a]phenanthren-3-yl) 2-amino-3-methylbutanoate]: the values for the IC50 in the assay on A549 cells and with Bcap-37 cells were 171 nM and 155 nM, respectively. For `CC(C)C[C@@H](N)C(=O)O[C@H]1CC[C@@]2(C)[C@H](CC[C@H]3C4=CC[C@H](c5ccc(=O)oc5)[C@@]4(C)CC[C@@H]32)C1` [(R)-((3S,5R,8R,9S,10S,13R,17S)-10,13-dimethyl-17-(2-oxo-2H-pyran-5-yl)-2,3,4,5,6,7,8,9,10,11,12,13,16,17-tetradecahydro-1H-cyclopenta[a]phenanthren-3-yl) 2-amino-4-methylpentanoate], in the assay with Bcap-37 cells, half-maximal inhibition (IC50) required 376 nM. For `C[C@@H](N)C(=O)O[C@H]1CC[C@@]2(C)[C@H](CC[C@H]3C4=CC[C@H](c5ccc(=O)oc5)[C@@]4(C)CC[C@@H]32)C1` [(R)-((3S,5R,8R,9S,10S,13R,17S)-10,13-dimethyl-17-(2-oxo-2H-pyran-5-yl)-2,3,4,5,6,7,8,9,10,11,12,13,16,17-tetradecahydro-1H-cyclopenta[a]phenanthren-3-yl) 2-aminopropanoate], the IC50 amounted to 106 nM in the assay with A549 cells and 161 nM in the assay with Bcap-37 cells. Turning to `CC(C)[C@H](N)C(=O)O[C@H]1CC[C@@]2(C)[C@H](CC[C@H]3C4=CC[C@H](c5ccc(=O)oc5)[C@@]4(C)CC[C@@H]32)C1` [(S)-((3S,5R,8R,9S,10S,13R,17S)-10,13-dimethyl-17-(2-oxo-2H-pyran-5-yl)-2,3,4,5,6,7,8,9,10,11,12,13,16,17-tetradecahydro-1H-cyclopenta[a]phenanthren-3-yl) 2-amino-3-methylbutanoate], in the assay with Bcap-37 cells, half-maximal inhibition (IC50) required 444 nM.

The molecule `CC(C)C[C@H](N)C(=O)O[C@H]1CC[C@@]2(C)[C@H](CC[C@H]3C4=CC[C@H](c5ccc(=O)oc5)[C@@]4(C)CC[C@@H]32)C1` [(S)-((3S,5R,8R,9S,10S,13R,17S)-10,13-dimethyl-17-(2-oxo-2H-pyran-5-yl)-2,3,4,5,6,7,8,9,10,11,12,13,16,17-tetradecahydro-1H-cyclopenta[a]phenanthren-3-yl) 2-amino-4-methylpentanoate] gave an IC50 with A549 cells of 229 nM. This lies in the sub-micromolar range.

In turn, `C[C@H](N)C(=O)O[C@H]1CC[C@@]2(C)[C@H](CC[C@H]3C4=CC[C@H](c5ccc(=O)oc5)[C@@]4(C)CC[C@@H]32)C1` [(S)-((3S,5R,8R,9S,10S,13R,17S)-10,13-dimethyl-17-(2-oxo-2H-pyran-5-yl)-2,3,4,5,6,7,8,9,10,11,12,13,16,17-tetradecahydro-1H-cyclopenta[a]phenanthren-3-yl) 2-aminopropanoate] displayed an IC50 in the assay with A549 cells of 112 nM. This IC50 lies about 2-fold lower than the previous one.

Usually IC50 stands for the concentration that gives 50% inhibition. The low end stands for higher potency, the high end for lower potency.
